Counter-ions that a name gives are not always drawn.

In assay [1] the test system is NCI-H292 lung cancer cells. The assay can be described thus: FDA drug screening, complete media vs cholesterol-free media without statin (TABLE 1). The format is cell-based, human.
The subject of assay [2] is NCI-H292 lung cancer cells. The assay can be described thus: FDA drug screening, complete media vs cholesterol-free media with simvastatin (TABLE 2). It counts as cell-based, human. The conditions noted are these: for Cholesterol-free media + simvastatin (0.04 μM) / Complete Media: NCI-H292 cells.
Where [3] appears, read: NCI-H292 cells, cholesterol-free media without statin.
[4] abbreviates: complete vs cholesterol-free media; greater than 0 enhanced anti-cancer activity, about 0 neutral, below 0 antagonists.
Setting [5] is: FDA drug library screen, cholesterol-free media with simvastatin 0.04 μM.
The mark [6] stands for this setting: complete media minus cholesterol-free media + simvastatin, >0 enhanced anti-cancer activity, about 0 neutral, <0 antagonist.
[7] abbreviates: Complete minus Cholesterol-free; >0 enhanced anti-cancer activity, about 0 neutral, <0 antagonist.
Where [8] appears, read: FDA library drug in cholesterol-free media with simvastatin 0.04 μM.
Setting [9] is: FDA library drug in complete media.
[10] abbreviates: complete media vs cholesterol-free media + simvastatin (0.04 μM), >0 enhanced anti-cancer activity, about 0 neutral, <0 antagonist.
Setting [11] is: Complete minus Cholesterol-free; […].
Setting [12] is: NCI-H292 cells, FDA drug library screen, complete media.
[13] abbreviates: drug in cholesterol-free media with simvastatin 0.04 μM.
[14] abbreviates: complete media vs cholesterol-free media + simvastatin (0.04 μM), […].
The mark [15] stands for this setting: Complete minus Cholesterol-free; greater than 0 enhanced anti-cancer activity, about 0 neutral, below 0 antagonist.
[16] abbreviates: NCI-H292 cells, FDA drug library screen, cholesterol-free media without statin.
[17] abbreviates: FDA drug library screen, complete media.
Where [18] appears, read: NCI-H292 cells, complete media, FDA drug library screen.
[19] abbreviates: NCI-H292 cells, cholesterol-free media without statin, FDA drug library screen.
[20] abbreviates: complete vs cholesterol-free media; >0 enhanced anti-cancer activity, about 0 neutral, <0 antagonist.

`CCCN1CCCC[C@H]1C(=O)Nc1c(C)cccc1C.CS(=O)(=O)O` [Ropivacaine (mesylate)] came in with a Cholesterol-free in assay [1] (setting [3]) of 1.155. In addition, in assay [1] (NCI-H292 cells, complete media), the Complete is 0.7954. For the same compound, the results for the Difference in assay [1] (setting [4]) and in assay [2] (setting [6]) were −0.36 and 0.22, respectively. In assay [2] (setting [5]), the “Cholesterol-free media + simvastatin (0.04 μM)” value was 0.9302.
On to `CCN(CC)CCOC(=O)c1ccc(N)cc1Cl` [Chloroprocaine (hydrochloride)], for which the Difference in assay [1] (setting [7]) and in assay [2] (setting [10]) was −0.28 each time. In assay [1] (setting [3]), this compound registered a Cholesterol-free of 1.161. Further, the Complete in assay [1] (NCI-H292 cells, complete media) came to 0.8831. The “Cholesterol-free media + simvastatin (0.04 μM)” value in assay [2] (setting [8]) is 1.184. For the same compound, the “Complete Media” value in assay [2] (setting [9]) worked out at 0.9029.
Turning to `COc1ccc(/C=C/C(=O)Nc2ccccc2C(=O)O)cc1OC` [trans-Tranilast], the results for the Difference in assay [1] (setting [11]) and in assay [2] (setting [14]) were −0.10 and −0.24, respectively. In assay [1] (setting [12]), this compound had a Complete of 0.8406. Moreover, the “Cholesterol-free media + simvastatin (0.04 μM)” value in assay [2] (setting [13]) turned out to be 1.144. The “Complete Media” value in assay [2] (drug in complete media) was found to be 0.9085.
Consider `CC(C)(C)c1cc(C(C)(C)C)c(NC(=O)c2c[nH]c3ccccc3c2=O)cc1O` [Ivacaftor], for which the results for the Difference in assay [1] (setting [15]) and in assay [2] (setting [10]) were −0.10 and −0.09, respectively. For the same compound, the Cholesterol-free in assay [1] (setting [16]) amounted to 0.9826. This compound also returned a Complete in assay [1] (setting [12]) of 0.878. In assay [2] (setting [5]), the “Cholesterol-free media + simvastatin (0.04 μM)” value amounted to 1.021. Further, the “Complete Media” value in assay [2] (setting [17]) came to 0.931.
As to Carbinoxamine maleate salt, the Difference in assay [1] (setting [7]) was −0.20; in assay [2] (setting [6]), 0.36. Also, in assay [1] (setting [3]), the Cholesterol-free is 1.129. The compound further displayed a Complete in assay [1] (NCI-H292 cells, complete media) of 0.9247. Further, the “Cholesterol-free media + simvastatin (0.04 μM)” value in assay [2] (setting [5]) was 0.757. For the same compound, the “Complete Media” value in assay [2] (setting [17]) was 1.12.
Regarding Osimertinib mesylate, the Difference is listed as −0.14 in assay [1] (setting [11]) and −0.12 in assay [2] (setting [14]). The compound also registered a Cholesterol-free in assay [1] (setting [16]) of 0.3436. For the same compound, the Complete in assay [1] (setting [12]) was 0.1992. The “Cholesterol-free media + simvastatin (0.04 μM)” value in assay [2] (setting [5]) worked out at 0.3874. Further, in assay [2] (setting [17]), the “Complete Media” value is listed as 0.2672.
Consider `CCCCCCCCCCCCN1CCCCCC1=O` [Laurocapram], for which the Difference in assay [1] (setting [7]) was −0.06; in assay [2] (setting [10]) it was −0.15. The Complete in assay [1] (setting [18]) is 0.887. The “Cholesterol-free media + simvastatin (0.04 μM)” value in assay [2] (setting [5]) was 1.036. Also, in assay [2] (setting [17]), the “Complete Media” value is 0.883.
With `Clc1ccc2c(c1)C(N1CCNCC1)=Nc1ccccc1O2` [Amoxapine], the Cholesterol-free in assay [1] (setting [19]) is listed as 1.3. Further, in assay [1] (setting [18]), the Complete is reported as 1.39. Moreover, the values for the Difference in assay [1] (setting [20]) and in assay [2] (setting [10]) were 0.09 and −0.57, respectively. In addition, the “Cholesterol-free media + simvastatin (0.04 μM)” value in assay [2] (setting [8]) was 1.586. The “Complete Media” value in assay [2] (setting [9]) is on record as 1.017.
Compound `OC[C@@H](O)[C@@H](O)[C@H](O)[C@@H](O)CO` [D-Sorbitol] displayed a Cholesterol-free in assay [1] (setting [19]) of 1.006. The same compound returned a Complete in assay [1] (setting [18]) of 1.32. Moreover, the Difference in assay [1] (setting [20]) is 0.31; in assay [2] (setting [10]), −0.12. Also, in assay [2] (setting [5]), the “Cholesterol-free media + simvastatin (0.04 μM)” value is reported as 1.142. Besides, the “Complete Media” value in assay [2] (setting [17]) is 1.023.
For the compound `CC(C(=O)O)c1ccc2c(c1)Cc1cccnc1O2` (stereo not drawn) [Pranoprofen], the Cholesterol-free in assay [1] (setting [19]) is on record as 0.6134. Besides, the Complete in assay [1] (setting [18]) is listed as 1.137. The Difference in assay [1] (setting [20]) was 0.52; in assay [2] (setting [10]), −0.34. Also, the “Cholesterol-free media + simvastatin (0.04 μM)” value in assay [2] (setting [8]) came out at 1.474. Also, in assay [2] (setting [9]), the “Complete Media” value is recorded as 1.136.
As for `NS(=O)(=O)c1cc2c(cc1Cl)N=CNS2(=O)=O` [Chlorothiazide], the Cholesterol-free in assay [1] (setting [19]) is reported as 0.8661. Further, the Complete in assay [1] (setting [18]) was found to be 1.321. Moreover, the results for the Difference in assay [1] (setting [20]) and in assay [2] (setting [10]) were 0.45 and −0.19, respectively. Moreover, the “Cholesterol-free media + simvastatin (0.04 μM)” value in assay [2] (setting [13]) is 1.126. Further, the “Complete Media” value in assay [2] (drug in complete media) is listed as 0.9372.
On to `CCCCCCCCCC(=O)OCCN1CCN(CCCN2c3ccccc3Sc3ccc(C(F)(F)F)cc32)CC1` [Fluphenazine decanoate], for which, in assay [1] (setting [19]), the Cholesterol-free turned out to be 0.4638. The compound also showed a Complete in assay [1] (setting [18]) of 1.069. Further, the Difference in assay [1] (setting [20]) was determined as 0.60; in assay [2] (setting [6]), 0.23. For the same compound, in assay [2] (setting [5]), the “Cholesterol-free media + simvastatin (0.04 μM)” value came to 0.7434. Also, in assay [2] (setting [17]), the “Complete Media” value stood at 0.9759.
As to `N[C@@H]1c2cccnc2[C@H](OC(=O)N2CCC(n3c(=O)[nH]c4ncccc43)CC2)CC[C@H]1c1cccc(F)c1F` [Rimegepant], in assay [1] (setting [3]), the Cholesterol-free worked out at 1.457. In assay [1] (NCI-H292 cells, complete media), this compound came in with a Complete of 0.9844. Also, the Difference in assay [1] (setting [4]) was −0.47; in assay [2] (setting [10]) it was −0.20. For the same compound, in assay [2] (setting [13]), the “Cholesterol-free media + simvastatin (0.04 μM)” value is on record as 1.311. In assay [2] (drug in complete media), the “Complete Media” value was found to be 1.114.
With `C[C@H](NCc1ccc(OCc2cccc(F)c2)cc1)C(N)=O` [Safinamide], the Difference in assay [1] (setting [15]) was −0.13; in assay [2] (complete media minus cholesterol-free media + simvastatin (0.04 μM), >0 enhanced anti-cancer activity, about 0 neutral, <0 antagonist), −0.05. The compound further had a Cholesterol-free in assay [1] (setting [16]) of 1.086. In assay [1] (setting [12]), this compound had a Complete of 0.9537. Also, the “Cholesterol-free media + simvastatin (0.04 μM)” value in assay [2] (cholesterol-free media with simvastatin 0.04 μM, FDA drug library screen (TABLE 2)) is 1.059. Also, in assay [2] (complete media, FDA drug library screen (TABLE 2)), the “Complete Media” value was 1.012.
Regarding `Cc1cccc(C)c1NC(=O)C(C)N` (stereo not drawn) [Tocainide (hydrochloride)], the Cholesterol-free in assay [1] (setting [3]) amounted to 1.376. The Complete in assay [1] (NCI-H292 cells, complete media) turned out to be 0.9544. In addition, the Difference in assay [1] (setting [4]) is −0.42; in assay [2] (setting [10]) it was −0.25. Moreover, in assay [2] (setting [13]), the “Cholesterol-free media + simvastatin (0.04 μM)” value was determined as 1.258. In assay [2] (drug in complete media), the “Complete Media” value was found to be 1.006.
As for `CCCc1nn(C)c2c(=O)[nH]c(-c3cc(S(=O)(=O)N4CCN(CCO)CC4)ccc3OCC)nc12` [Lodenafil], the Difference was −0.27 in assay [1] (setting [7]) and 0.03 in assay [2] (setting [6]). In addition, the Cholesterol-free in assay [1] (setting [3]) turned out to be 0.8421. Moreover, in assay [1] (NCI-H292 cells, complete media), the Complete was 0.5699. The “Cholesterol-free media + simvastatin (0.04 μM)” value in assay [2] (cholesterol-free media with simvastatin 0.04 μM, cell growth value in FDA drug screen) is 0.819. Further, in assay [2] (complete media, cell growth value in FDA drug screen), the “Complete Media” value turned out to be 0.8488.
For the compound `CC(=O)OCC(=O)[C@@]1(O)CC[C@H]2[C@@H]3CCC4=CC(=O)C=C[C@]4(C)[C@H]3C(=O)C[C@@]21C` [Prednisone acetate], the Difference in assay [1] (setting [11]) was −0.20; in assay [2] (setting [14]), −0.30. The compound also showed a Cholesterol-free in assay [1] (setting [3]) of 0.9782. The same compound returned a Complete in assay [1] (NCI-H292 cells, complete media) of 0.7806. Further, in assay [2] (setting [8]), the “Cholesterol-free media + simvastatin (0.04 μM)” value came to 0.9605. Moreover, the “Complete Media” value in assay [2] (setting [9]) turned out to be 0.6606.
Take `CCOC(=O)[C@H](CCc1ccccc1)N[C@@H](C)C(=O)N1Cc2cc(OC)c(OC)cc2C[C@H]1C(=O)O` [Moexipril (hydrochloride)]: the Difference in assay [1] (setting [7]) is listed as 0.02; in assay [2] (setting [10]), −0.37. This compound had a Cholesterol-free in assay [1] (setting [19]) of 1.004. In assay [1] (setting [18]), this compound had a Complete of 1.024. In addition, the “Cholesterol-free media + simvastatin (0.04 μM)” value in assay [2] (setting [8]) is recorded as 1.452. The “Complete Media” value in assay [2] (setting [9]) is recorded as 1.081.
On to `O=C1CCCC(=O)C1C(=O)c1ccc(C(F)(F)F)cc1[N+](=O)[O-]` [Nitisinone], for which the Difference in assay [1] (setting [15]) was −0.08; in assay [2] (setting [6]) it was 0.25. The Cholesterol-free in assay [1] (setting [16]) turned out to be 0.8746. Also, the Complete in assay [1] (setting [12]) is on record as 0.7963. For the same compound, the “Cholesterol-free media + simvastatin (0.04 μM)” value in assay [2] (setting [5]) came to 0.9427. Further, the “Complete Media” value in assay [2] (setting [17]) came to 1.188.

These data come from patent US20250144067A1, “PERSONALIZED STARVATION THERAPY FOR CANCER” (Faeth Therapeutics, Inc., priority 2021, published 2025).
